Assay results from patent publication US11999727B2 (Tango Therapeutics, Inc., priority 2020, dated 2024).

Assays:
PRMT5 [1] = molecular target: T1, PRMT5 (Homo sapiens, UniProt O14744); assay: PRMT5 biochemical IC50 assay with SAM as cofactor; conditions: PRMT5, SAM as cofactor; read-out: SAM IC50
T1 construct: purchased Viva (custom protein)

PRMT5 [2] = molecular target: T1, PRMT5; assay: PRMT5 biochemical IC50 assay with no cofactor; conditions: PRMT5, no cofactor; read-out: No Cofactor/rel IC50
From the text: Table 1 indicates IC50 values (μM) against PRMT5 for exemplary compounds in the presence of SAM as cofactor, with no cofactor, and with MTA as cofactor, respectively (columns 4-6). […] Ki values can be calculated from the IC50 values as described in the Examples section. As detailed in the Examples section, for the assay performed in the presence of SAM, IC50=Ki×1.5 (Ki=IC50/1.5).

[3] = test system: HAP1 MTAP-intact cell line; assay: SDMA in-cell western assay, HAP1 MTAP-intact; format: cell-based; conditions: Homo sapiens, HAP1, SDMA in-cell western, HAP1 MTAP-intact; read-out: MTAP HAP1 intact IC50
Outline: (§1)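 IC50 values come from SDMA signal quantified by in-cell western in two HAP1 lines, one with native MTAP levels and one lacking MTAP.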

[4] = test system: HAP1 MTAP-deleted cell line; assay: SDMA in-cell western assay, HAP1 MTAP-deleted; format: cell-based; conditions: for IC50: Homo sapiens, HAP1, SDMA in-cell western, HAP1 MTAP-deleted, read-out: HAP1 MTAP deleted IC50; for MTAP intact/deleted ratio: IC50 ratio HAP1 MTAP-intact / HAP1 MTAP-deleted, SDMA in-cell western
Outline: as §1

PRMT5 [5] = molecular target: T1, PRMT5; assay: PRMT5 biochemical IC50 assay with MTA as cofactor; conditions: PRMT5, MTA as cofactor; read-out: MTA IC50
[6] = test system: HAP1 MTAP-deleted cell line; assay: Viability assay, MTAP-deleted cell line; format: cell-based; conditions: Homo sapiens, HAP1, viability assay, HAP1 MTAP-deleted; read-out: HAP1 MTAP deleted viability
From the text: Table 1 additionally indicates IC50 values in a viability assay for the MTAP-deleted cell line (column 10), indicating the effect of treatment with compound on cell survival.

T1 sequence (O14744 whole entry): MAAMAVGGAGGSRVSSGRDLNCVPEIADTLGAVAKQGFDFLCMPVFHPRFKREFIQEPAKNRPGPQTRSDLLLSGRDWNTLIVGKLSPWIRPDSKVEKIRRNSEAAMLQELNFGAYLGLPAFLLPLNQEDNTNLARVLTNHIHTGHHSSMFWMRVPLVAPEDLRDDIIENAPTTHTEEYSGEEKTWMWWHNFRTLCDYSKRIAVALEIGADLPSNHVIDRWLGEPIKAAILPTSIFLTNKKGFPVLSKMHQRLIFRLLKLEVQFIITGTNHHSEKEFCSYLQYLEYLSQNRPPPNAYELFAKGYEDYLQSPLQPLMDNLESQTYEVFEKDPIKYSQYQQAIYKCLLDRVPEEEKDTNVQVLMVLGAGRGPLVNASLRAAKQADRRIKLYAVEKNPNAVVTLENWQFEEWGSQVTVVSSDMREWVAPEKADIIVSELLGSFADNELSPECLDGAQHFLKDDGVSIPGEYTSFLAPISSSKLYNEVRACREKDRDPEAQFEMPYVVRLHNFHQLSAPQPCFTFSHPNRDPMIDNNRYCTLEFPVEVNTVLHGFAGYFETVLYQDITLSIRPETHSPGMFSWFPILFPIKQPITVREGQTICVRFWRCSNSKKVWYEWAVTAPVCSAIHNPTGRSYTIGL
T1 sequence (Q9BQA1 whole entry partner): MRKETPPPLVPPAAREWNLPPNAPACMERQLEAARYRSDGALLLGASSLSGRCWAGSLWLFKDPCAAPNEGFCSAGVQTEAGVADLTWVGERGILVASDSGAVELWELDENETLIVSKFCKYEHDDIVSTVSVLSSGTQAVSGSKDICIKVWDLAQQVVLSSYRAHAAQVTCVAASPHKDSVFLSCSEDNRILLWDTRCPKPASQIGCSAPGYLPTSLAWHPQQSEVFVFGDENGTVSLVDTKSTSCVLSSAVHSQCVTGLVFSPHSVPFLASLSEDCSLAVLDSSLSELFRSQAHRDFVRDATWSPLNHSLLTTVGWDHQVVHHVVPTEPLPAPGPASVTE

Compound | IC50 (PRMT5 [1]) | IC50 (PRMT5 [2]) | IC50 [3] | IC50 [4] | MTAP intact/deleted ratio [4] | IC50 (PRMT5 [5]) | IC50 [6]
Cc1cc(NC(=O)C(=O)N2C[C@H](C)CC[C@H]2c2ccc(-c3nccs3)cc2)cnc1N (single isomer, unassigned) [Compound 816] | > 500 nM | > 500 nM | > 1000 nM | > 1000 nM | C (an IC50 ratio of less than 3 fold) | > 500 nM | > 10000 nM
C[C@@H]1CC[C@@H](c2ccc(-c3cncs3)cc2)N(C(=O)C(=O)Nc2cncc(C(N)=O)c2)C1 (single isomer, unassigned) [Compound 817, 5-(2-(5-methyl-2-(4-(thiazol-5-yl)phenyl)piperidin-1-yl)-2-oxoacetamido)nicotinamide] | > 500 nM | > 500 nM | > 1000 nM | > 1000 nM | C (an IC50 ratio of less than 3 fold) | > 500 nM | > 10000 nM
CCc1cc(NC(=O)C(=O)N2C[C@H](C)CC[C@H]2c2ccc3[nH]c(=O)ccc3c2)cnc1N (single isomer, unassigned) [Compound 819] | > 500 nM | > 500 nM | > 1000 nM | 100 to 1000 nM | A (an IC50 ratio greater than or equal to 10 fold) | > 500 nM | 1000 to 10000 nM
Cc1cc(NC(=O)C(=O)N2C[C@@H](C)CC[C@@H]2c2ccc(-c3nccs3)cc2)cnc1N (single isomer, unassigned) [Compound 820] | 50 to 500 nM | 50 to 500 nM | 100 to 1000 nM | < 100 nM | B (an IC50 ratio greater than or equal to 3 fold but lower than 10 fold) | < 50 nM | < 1000 nM
C[C@H]1CC[C@H](c2ccc(-c3cncs3)cc2)N(C(=O)C(=O)Nc2cncc(C(N)=O)c2)C1 (single isomer, unassigned) [Compound 821, 5-(2-(5-methyl-2-(4-(thiazol-5-yl)phenyl)piperidin-1-yl)-2-oxoacetamido)nicotinamide] | 50 to 500 nM | 50 to 500 nM | > 1000 nM | < 100 nM | A (an IC50 ratio greater than or equal to 10 fold) | < 50 nM | 1000 to 10000 nM
CCc1cc(NC(=O)C(=O)N2C[C@@H](C)CC[C@@H]2c2ccc(-c3nccs3)cc2)cnc1N (single isomer, unassigned) [Compound 822] | > 500 nM | > 500 nM | > 1000 nM | > 1000 nM | C (an IC50 ratio of less than 3 fold) | > 500 nM | > 10000 nM
Cc1cc(NC(=O)C(=O)N2C[C@H](C)CC[C@H]2c2ccc(C(N)=O)s2)cnc1N (single isomer, unassigned) [Compound 823] | > 500 nM | > 500 nM | > 1000 nM | > 1000 nM | C (an IC50 ratio of less than 3 fold) | > 500 nM | > 10000 nM
Cc1cc(NC(=O)C(=O)N2C[C@@H](C)CC[C@@H]2c2cc3[nH]ncc3s2)cnc1N (single isomer, unassigned) [Compound 824] | 50 to 500 nM | < 50 nM | 100 to 1000 nM | < 100 nM | A (an IC50 ratio greater than or equal to 10 fold) | < 50 nM | < 1000 nM
CCc1cc(NC(=O)C(=O)N2C[C@@H](C)CC[C@@H]2c2ccc3[nH]c(=O)ccc3c2)cnc1N (single isomer, unassigned) [Compound 825] | 50 to 500 nM | < 50 nM | 100 to 1000 nM | < 100 nM | A (an IC50 ratio greater than or equal to 10 fold) | < 50 nM | < 1000 nM
Cc1cc(NC(=O)C(=O)N2C[C@H](C)CC[C@H]2c2cc3[nH]ncc3s2)cnc1N (single isomer, unassigned) [Compound 826] | > 500 nM | > 500 nM | > 1000 nM | > 1000 nM | B (an IC50 ratio greater than or equal to 3 fold but lower than 10 fold) | 50 to 500 nM | > 10000 nM
CCc1cc(NC(=O)C(=O)N2C[C@@H](C)CC[C@@H]2c2ccc(-c3cncs3)cc2)cnc1N (single isomer, unassigned) [Compound 827, N-(6-amino-5-ethylpyridin-3-yl)-2-(5-methyl-2-(4-(thiazol-5-yl)phenyl)piperidin-1-yl)-2-oxoacetamide] | > 500 nM | > 500 nM | > 1000 nM | 100 to 1000 nM | A (an IC50 ratio greater than or equal to 10 fold) | 50 to 500 nM | > 10000 nM
CNC(=O)c1ccc([C@@H]2CC[C@@H](C)CN2C(=O)C(=O)Nc2cncc(C(N)=O)c2)s1 (single isomer, unassigned) [Compound 829] | 50 to 500 nM | < 50 nM | > 1000 nM | < 100 nM | A (an IC50 ratio greater than or equal to 10 fold) | < 50 nM | 1000 to 10000 nM
COc1ncc(NC(=O)C(=O)N2C[C@H](C)CC[C@H]2c2ccc(-c3cncs3)cc2)cc1C(N)=O (single isomer, unassigned) [Compound 830, 2-methoxy-5-(2-(5-methyl-2-(4-(thiazol-5-yl)phenyl)piperidin-1-yl)-2-oxoacetamido)nicotinamide] | 50 to 500 nM | 50 to 500 nM | > 1000 nM | < 100 nM | A (an IC50 ratio greater than or equal to 10 fold) | < 50 nM | < 1000 nM
CNC(=O)c1ccc([C@H]2CC[C@H](C)CN2C(=O)C(=O)Nc2cnc(OC)c(C(N)=O)c2)s1 (single isomer, unassigned) [Compound 833] | 50 to 500 nM | 50 to 500 nM | 100 to 1000 nM | < 100 nM | A (an IC50 ratio greater than or equal to 10 fold) | < 50 nM | < 1000 nM
C[C@@H]1CC[C@@H](c2cc(F)c(F)c(Cl)c2)N(C(=O)C(=O)Nc2cncc(C(N)=O)c2)C1 (single isomer, unassigned) [Compound 834] | 50 to 500 nM | 50 to 500 nM | > 1000 nM | 100 to 1000 nM | A (an IC50 ratio greater than or equal to 10 fold) | < 50 nM | 1000 to 10000 nM
CCc1cc(NC(=O)C(=O)N2C[C@H](C)CC[C@H]2c2ccc(C(=O)NC)s2)cnc1N (single isomer, unassigned) [Compound 835] | > 500 nM | > 500 nM | > 1000 nM | > 1000 nM | C (an IC50 ratio of less than 3 fold) | > 500 nM | > 10000 nM
COc1ncc(NC(=O)C(=O)N2C[C@@H](C)CC[C@@H]2c2ccc(C(N)=O)s2)cc1C(N)=O (single isomer, unassigned) [Compound 837] | 50 to 500 nM | < 50 nM | > 1000 nM | < 100 nM | A (an IC50 ratio greater than or equal to 10 fold) | < 50 nM | < 1000 nM
CCc1cc(NC(=O)C(=O)N2C[C@H](C)CC[C@H]2c2ccc(C(N)=O)s2)cnc1N (single isomer, unassigned) [Compound 838] | 50 to 500 nM | < 50 nM | 100 to 1000 nM | < 100 nM | A (an IC50 ratio greater than or equal to 10 fold) | < 50 nM | < 1000 nM
CNC(=O)c1ccc([C@H]2CC[C@H](C)CN2C(=O)C(=O)Nc2cncc(C(N)=O)c2)s1 (single isomer, unassigned) [Compound 839] | > 500 nM | > 500 nM | > 1000 nM | > 1000 nM | B (an IC50 ratio greater than or equal to 3 fold but lower than 10 fold) | > 500 nM | > 10000 nM
CCc1cc(NC(=O)C(=O)N2C[C@@H](C)CC[C@@H]2c2ccc(C(=O)NC)s2)cnc1N (single isomer, unassigned) [Compound 840] | 50 to 500 nM | < 50 nM | 100 to 1000 nM | < 100 nM | A (an IC50 ratio greater than or equal to 10 fold) | < 50 nM | < 1000 nM
CCc1cc(NC(=O)C(=O)N2C[C@H](C)CC[C@H]2c2ccc(-c3cncs3)cc2)cnc1N (single isomer, unassigned) [Compound 841, N-(6-amino-5-ethylpyridin-3-yl)-2-(5-methyl-2-(4-(thiazol-5-yl)phenyl)piperidin-1-yl)-2-oxoacetamide] | 50 to 500 nM | < 50 nM | 100 to 1000 nM | < 100 nM | A (an IC50 ratio greater than or equal to 10 fold) | < 50 nM | < 1000 nM
